# Laboratory results from paper PMC5614982, “Impact of Gastric H^+/K^+-ATPase rs2733743 on the Intragastric pH-Values of Dexlansoprazole Injection in Chinese Subjects” (Frontiers in Pharmacology, 2017).
# Marks after values point to notes of the source that are not given here.
# Tested on: intragastric pH
# Experiment: 24-h intragastric pH monitoring after single intravenous dexlansoprazole in healthy Chinese subjects
# Assay type: in vivo, human
# Settings: 30 mg iv
# Protocol: Dexlansoprazole injection (30 mg per vial) used in the PK and PD study was manufactured by Nanjing Yoko Pharma Co., Ltd. (Nanjing, China). Subjects received an intravenous infusion of 20 or 30 mg dexlansoprazole injection in sterile saline solution (100 mL/h, 60 min). The study drug was administrated with an infusing pump (SA213, Lifepum, Beijing, China) and given through an intravenous catheter in the antecubital vein opposite to the one from which blood samples were taken.
# An ambulatory pH recorder (Orion II, MMS, USA) with a disposable pH catheter (VersaFlex, MMS, USA) was used to monitor intragastric pH. The electrode was placed in water for at least 10 min and then calibrated using standard buffer solutions (pH 1.07 and 7.01) before intubation. Both calibration and intubation processes were conducted under the guidance of MMS Virtual Instructor Program. The catheter, trans nasally placed 10 cm under the lower esophageal sphincter, was identified by a sharp decrease in pH (Wang et al., [2010], [2011]). Subjects were intubated on baseline and the day of dosing at about 7:30 a.m., and the intragastric pH data were recorded continuously for 24 h from 8:00 a.m. Intragastric pH was sampled every second, and the data were stored in a MMS Database program (MMS, USA). The PD parameters including Median (pH), Mean (pH), TpH≥3 (%), TpH≥4 (%), TpH≥6 (%), TpH≥6, and AUC^pH−t were analyzed by the MMS Database program.
# Median (pH) and mean (pH) were well-investigated in most studies, and the percentage time of pH ≥ 4 (or pH ≥ 4 holding time ratio) was the benchmark for predicting clinical efficacy of PPIs in treating acid-related diseases (Metz et al., [2009]). Novel parameter TpH≥6 (time to first gastric pH ≥ 6, min) and AUCτ 1-τ 2pH-t (area under pH-time curve from τ1 to τ2, pH·s) were defined to evaluate the velocity and extent of pharmacodynamics with more accuracy. All parameters were calculated and compared according to time periods of 0–24, 0–4, 4–10, 10–14, and 14–24 h post dosing.
# The parameter AUCτ 1-τ 2pH-t was calculated as follows:
# Where t represented the time duration measured by seconds, AUCτ 1-τ 210-t was the area between the pH line = 10 and the pH-time curve, which was generated by the MMS software.
# Baseline-adjusted PD parameters were calculated as follows: for example, ΔAUC^pH−t = AUC^pH−t − AUC^pH−tbaseline, ΔMean (pH) = Mean (pH) − Mean (pH)^baseline, and ΔMedian (pH) = Median (pH) − Median (pH)^baseline.
# [1] = CYP2C19 EMs, H+/K+-ATPase WT (n = 6), 0–4 h
# [2] = CYP2C19 EMs, H+/K+-ATPase WT (n = 6), 0–24 h
# [3] = CYP2C19 EMs, H+/K+-ATPase WT (n = 6), 14–24 h
# [4] = H+/K+-ATPase Het (n = 10), 0–4 h
structure (smiles),measurement,setting,value
Cc1c(OCC(F)(F)F)ccnc1C[S@@+]([O-])c1nc2ccccc2[nH]1 [dexlansoprazole],Mean (pH),[1],6.1 ± 0.5 pH
same,Median (pH),[1],6.9 ± 0.5 pH
same,TpH≥3(%),[1],80.8 ± 8.4%
same,TpH≥4(%),[1],76.4 ± 9.4%
same,TpH≥6(%),[1],66.9 ± 14.8%
same,ΔMean (pH),[1],3.4 ± 0.7 pH
same,ΔMedian (pH),[1],4.5 ± 0.7^b pH
same,ΔTpH≥3(%),[1],51.7 ± 34.6%
same,ΔTpH≥4 (%),[1],58.6 ± 15.0%
same,ΔTpH≥6(%),[1],60.9 ± 12.6%
same,Mean (pH),[2],5.6 ± 1.1 pH
same,Median (pH),[2],5.8 ± 1.4 pH
same,TpH≥3(%),[2],79.8 ± 16.2%
same,TpH≥4(%),[2],73.1 ± 20.0%
same,TpH≥6(%),[2],53.5 ± 23.6%
same,ΔMean (pH),[2],2.4 ± 0.8^c pH
same,ΔMedian (pH),[2],3.2 ± 1.0 pH
same,ΔTpH≥3(%),[2],35.3 ± 10.3^c %
same,ΔTpH≥4 (%),[2],41.0 ± 16.6^c %
same,ΔTpH≥6(%),[2],43.2 ± 18.2%
same,Mean (pH),[3],4.8 ± 1.8 pH
same,Median (pH),[3],4.3 ± 1.7 pH
same,TpH≥3(%),[3],62.4 ± 35.6%
same,TpH≥4(%),[3],52.1 ± 41.3%
same,TpH≥6(%),[3],34.4 ± 28.0%
same,ΔMean (pH),[3],1.6 ± 0.9^c pH
same,ΔMedian (pH),[3],2.3 ± 1.7 pH
same,ΔTpH≥3(%),[3],38.5 ± 26.5^c %
same,ΔTpH≥4 (%),[3],29.5 ± 29.9%
same,ΔTpH≥6(%),[3],14.1 ± 12.6^c %
same,Mean (pH),"CYP2C19 IM (n = 10), 0–4 h",5.6 ± 2.2 pH
same,Median (pH),"CYP2C19 IM (n = 10), 0–4 h",6.2 ± 2.8 pH
same,TpH≥3(%),"CYP2C19 IM (n = 10), 0–4 h",66.9 ± 33.4%
same,TpH≥4(%),"CYP2C19 IM (n = 10), 0–4 h",63.6 ± 36.2%
same,TpH≥6(%),"CYP2C19 IM (n = 10), 0–4 h",56.6 ± 36.6%
same,ΔMean (pH),"CYP2C19 IM (n = 10), 0–4 h",3.3 ± 1.7 pH
same,ΔMedian (pH),"CYP2C19 IM (n = 10), 0–4 h",4.3 ± 2.5 pH
same,ΔTpH≥3(%),"CYP2C19 IM (n = 10), 0–4 h",56.9 ± 27.1%
same,ΔTpH≥4 (%),"CYP2C19 IM (n = 10), 0–4 h",56.2 ± 31.5%
same,ΔTpH≥6(%),"CYP2C19 IM (n = 10), 0–4 h",51.3 ± 33.5%
same,Mean (pH),"CYP2C19 IM (n = 10), 0–24 h",6.6 ± 0.9 pH
same,Median (pH),"CYP2C19 IM (n = 10), 0–24 h",7.0 ± 0.8 pH
same,TpH≥3(%),"CYP2C19 IM (n = 10), 0–24 h",89.6 ± 9.2%
same,TpH≥4(%),"CYP2C19 IM (n = 10), 0–24 h",85.7 ± 10.6%
same,TpH≥6(%),"CYP2C19 IM (n = 10), 0–24 h",67.8 ± 13.4%
same,ΔMean (pH),"CYP2C19 IM (n = 10), 0–24 h",3.7 ± 0.6 pH
same,ΔMedian (pH),"CYP2C19 IM (n = 10), 0–24 h",4.9 ± 0.8 pH
same,ΔTpH≥3(%),"CYP2C19 IM (n = 10), 0–24 h",65.3 ± 6.2%
same,ΔTpH≥4 (%),"CYP2C19 IM (n = 10), 0–24 h",70.0 ± 8.3%
same,ΔTpH≥6(%),"CYP2C19 IM (n = 10), 0–24 h",56.7 ± 6.4%
same,Mean (pH),"CYP2C19 IM (n = 10), 14–24 h",6.1 ± 0.9 pH
same,Median (pH),"CYP2C19 IM (n = 10), 14–24 h",6.2 ± 1.2 pH
same,TpH≥3(%),"CYP2C19 IM (n = 10), 14–24 h",88.9 ± 8.9%
same,TpH≥4(%),"CYP2C19 IM (n = 10), 14–24 h",80.9 ± 12.6%
same,TpH≥6(%),"CYP2C19 IM (n = 10), 14–24 h",50.7 ± 13.6%
same,ΔMean (pH),"CYP2C19 IM (n = 10), 14–24 h",2.7 ± 0.9 pH
same,ΔMedian (pH),"CYP2C19 IM (n = 10), 14–24 h",3.7 ± 0.9 pH
same,ΔTpH≥3(%),"CYP2C19 IM (n = 10), 14–24 h",60.8 ± 19.5%
same,ΔTpH≥4 (%),"CYP2C19 IM (n = 10), 14–24 h",55.6 ± 17.3%
same,ΔTpH≥6(%),"CYP2C19 IM (n = 10), 14–24 h",27.8 ± 14.7^c %
same,Mean (pH),"CYP2C19 PM (n = 7), 0–4 h",5.2 ± 1.1 pH
same,Median (pH),"CYP2C19 PM (n = 7), 0–4 h",5.9 ± 1.8 pH
same,TpH≥3(%),"CYP2C19 PM (n = 7), 0–4 h",73.7 ± 10.5%
same,TpH≥4(%),"CYP2C19 PM (n = 7), 0–4 h",64.8 ± 15.2%
same,TpH≥6(%),"CYP2C19 PM (n = 7), 0–4 h",47.7 ± 24.1%
same,ΔMean (pH),"CYP2C19 PM (n = 7), 0–4 h",3.5 ± 0.9 pH
same,ΔMedian (pH),"CYP2C19 PM (n = 7), 0–4 h",4.2 ± 1.8 pH
same,ΔTpH≥3(%),"CYP2C19 PM (n = 7), 0–4 h",69.8 ± 9.5%
same,ΔTpH≥4 (%),"CYP2C19 PM (n = 7), 0–4 h",63.2 ± 13.7%
same,ΔTpH≥6(%),"CYP2C19 PM (n = 7), 0–4 h",47.3 ± 23.7%
same,Mean (pH),"CYP2C19 PM (n = 7), 0–24 h",6.5 ± 1.1 pH
same,Median (pH),"CYP2C19 PM (n = 7), 0–24 h",6.7 ± 1.2 pH
same,TpH≥3(%),"CYP2C19 PM (n = 7), 0–24 h",89.0 ± 13.3%
same,TpH≥4(%),"CYP2C19 PM (n = 7), 0–24 h",85.0 ± 16.4%
same,TpH≥6(%),"CYP2C19 PM (n = 7), 0–24 h",72.2 ± 19.8%
same,ΔMean (pH),"CYP2C19 PM (n = 7), 0–24 h",4.1 ± 1.1^a pH
same,ΔMedian (pH),"CYP2C19 PM (n = 7), 0–24 h",4.8 ± 1.2 pH
same,ΔTpH≥3(%),"CYP2C19 PM (n = 7), 0–24 h",68.6 ± 15.3^a %
same,ΔTpH≥4 (%),"CYP2C19 PM (n = 7), 0–24 h",74.6 ± 16.6^a %
same,ΔTpH≥6(%),"CYP2C19 PM (n = 7), 0–24 h",68.8 ± 17.9^a %
same,Mean (pH),"CYP2C19 PM (n = 7), 14–24 h",6.1 ± 1.4 pH
same,Median (pH),"CYP2C19 PM (n = 7), 14–24 h",5.9 ± 2.0 pH
same,TpH≥3(%),"CYP2C19 PM (n = 7), 14–24 h",87.3 ± 22.7%
same,TpH≥4(%),"CYP2C19 PM (n = 7), 14–24 h",82.9 ± 26.0%
same,TpH≥6(%),"CYP2C19 PM (n = 7), 14–24 h",64.4 ± 25.6^a %
same,ΔMean (pH),"CYP2C19 PM (n = 7), 14–24 h",3.8 ± 1.3^a pH
same,ΔMedian (pH),"CYP2C19 PM (n = 7), 14–24 h",4.1 ± 1.9^a pH
same,ΔTpH≥3(%),"CYP2C19 PM (n = 7), 14–24 h",76.9 ± 20.0^a %
same,ΔTpH≥4 (%),"CYP2C19 PM (n = 7), 14–24 h",75.9 ± 22.4^a %
same,ΔTpH≥6(%),"CYP2C19 PM (n = 7), 14–24 h","59.0 ± 24.6^a^,^b %"
same,Mean (pH),[4],5.3 ± 2.0 pH
same,Median (pH),[4],5.5 ± 2.5 pH
same,TpH≥3(%),[4],70.6 ± 25.1%
same,TpH≥4(%),[4],64.8 ± 28.6%
same,TpH≥6(%),[4],50.5 ± 38.4%
same,ΔMean (pH),[4],3.0 ± 1.2 pH
